Measurements reported in BindingDB's records for doi:10.1002/cmdc.200500017 (2006).

The molecules below were run against T1, Fatty-acid amide hydrolase 1 [30-579] (Rattus norvegicus, UniProt P97612) (assay: FAAH Inhibition Assay).
T1 construct: 30-579
T1 sequence (P97612 whole entry): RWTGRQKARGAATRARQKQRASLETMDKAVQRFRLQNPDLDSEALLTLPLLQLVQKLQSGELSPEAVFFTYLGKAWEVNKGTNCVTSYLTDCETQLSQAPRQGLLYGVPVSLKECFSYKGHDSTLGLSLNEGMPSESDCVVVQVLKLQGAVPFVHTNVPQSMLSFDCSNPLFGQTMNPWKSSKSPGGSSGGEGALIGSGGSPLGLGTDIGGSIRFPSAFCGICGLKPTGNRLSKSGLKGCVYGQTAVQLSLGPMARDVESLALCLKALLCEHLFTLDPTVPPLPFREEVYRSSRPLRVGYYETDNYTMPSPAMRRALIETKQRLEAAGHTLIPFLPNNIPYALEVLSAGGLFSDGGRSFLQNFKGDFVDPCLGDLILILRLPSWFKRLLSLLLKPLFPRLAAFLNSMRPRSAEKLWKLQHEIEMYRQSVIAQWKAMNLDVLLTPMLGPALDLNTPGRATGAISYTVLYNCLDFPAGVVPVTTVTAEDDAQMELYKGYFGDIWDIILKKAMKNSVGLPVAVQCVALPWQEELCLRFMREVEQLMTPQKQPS
Procedure: Membrane fractions were prepared from Wistar rat brain homogenates, and FAAH activity were assayed by using [3H]anandamide (anandamide[ethanolamine-3H], 60 Cimmol-1, from American Radiolabeled Chemicals, St. Louis, USA) as a substrate.

**Q.** With `O=C(NC1CCCCC1)Oc1cccc(Oc2cccc(-c3ccccc3)c2)c1` [FAAH Inhibitor, 2l] as the molecule, how does the IC50 read?
**A.** 2.74 µM

**Q.** Which IC50 does the source give for `O=C(NC1CCCCC1)Oc1ccc2ccn(-c3ccccc3)c2c1` [FAAH Inhibitor, 2k] here?
**A.** 1.03 µM

**Q.** `NC(=O)c1ccc(OC(=O)NC2CCCCC2)cc1-c1ccccc1` [FAAH Inhibitor, 2e] was tested. Which IC50 did it give?
**A.** 0.252 µM

**Q.** How did the IC50 turn out when `Cc1ccc(OC(=O)NC2CCCCC2)cc1-c1ccccc1` [FAAH Inhibitor, 2f] was run?
**A.** 0.176 µM

**Q.** `O=C(NC1CCCCC1)Oc1ccc(O)c(-c2ccccc2)c1` [FAAH Inhibitor, 2g] was tested. Which IC50 did it give?
**A.** 0.045 µM

**Q.** How did the IC50 turn out when `O=C(NC(=O)c1ccc(OC(=O)NC2CCCCC2)cc1-c1ccccc1)NC1CCCCC1` [FAAH Inhibitor, 2j] was run?
**A.** 2.74 µM

**Q.** With `Nc1ccc(-c2ccccc2)cc1OC(=O)NC1CCCCC1` [FAAH Inhibitor, 2b] as the molecule, how does the IC50 read?
**A.** 4.83 µM

**Q.** How did the IC50 turn out when `Nc1ccc(OC(=O)NC2CCCCC2)cc1-c1ccccc1` [FAAH Inhibitor, 2d] was run?
**A.** 0.052 µM

**Q.** How did the IC50 turn out when `O=C(NC1CCCCC1)Oc1ccc(CO)c(-c2ccccc2)c1` [FAAH Inhibitor, 2h] was run?
**A.** 0.046 µM

**Q.** `O=C(NC1CCCCC1)Oc1cc(-c2ccccc2)ccc1[N+](=O)[O-]` [FAAH Inhibitor, 2a] was tested. Which IC50 did it give?
**A.** > 30 µM

**Q.** For `CN(C)c1ccc(OC(=O)NC2CCCCC2)cc1-c1ccccc1` [FAAH Inhibitor, 2i], which IC50 is on record?
**A.** 1.59 µM

**Q.** With `O=C(NC1CCCCC1)Oc1ccc([N+](=O)[O-])c(-c2ccccc2)c1` [FAAH Inhibitor, 2c] as the molecule, how does the IC50 read?
**A.** > 30 µM
